# Test results taken from patent publication US7235563B2, “Spirocyclic compounds useful as modulators of nuclear hormone receptor function” (Bristol-Myers Squibb Company, priority 2004, dated 2007).
# Like-named read-outs stand apart in the source and are kept apart here.
# Assays:
# AR [1] = molecular target: T1, AR (Rattus norvegicus, UniProt P15207)
# T1 sequence (P15207 1-902): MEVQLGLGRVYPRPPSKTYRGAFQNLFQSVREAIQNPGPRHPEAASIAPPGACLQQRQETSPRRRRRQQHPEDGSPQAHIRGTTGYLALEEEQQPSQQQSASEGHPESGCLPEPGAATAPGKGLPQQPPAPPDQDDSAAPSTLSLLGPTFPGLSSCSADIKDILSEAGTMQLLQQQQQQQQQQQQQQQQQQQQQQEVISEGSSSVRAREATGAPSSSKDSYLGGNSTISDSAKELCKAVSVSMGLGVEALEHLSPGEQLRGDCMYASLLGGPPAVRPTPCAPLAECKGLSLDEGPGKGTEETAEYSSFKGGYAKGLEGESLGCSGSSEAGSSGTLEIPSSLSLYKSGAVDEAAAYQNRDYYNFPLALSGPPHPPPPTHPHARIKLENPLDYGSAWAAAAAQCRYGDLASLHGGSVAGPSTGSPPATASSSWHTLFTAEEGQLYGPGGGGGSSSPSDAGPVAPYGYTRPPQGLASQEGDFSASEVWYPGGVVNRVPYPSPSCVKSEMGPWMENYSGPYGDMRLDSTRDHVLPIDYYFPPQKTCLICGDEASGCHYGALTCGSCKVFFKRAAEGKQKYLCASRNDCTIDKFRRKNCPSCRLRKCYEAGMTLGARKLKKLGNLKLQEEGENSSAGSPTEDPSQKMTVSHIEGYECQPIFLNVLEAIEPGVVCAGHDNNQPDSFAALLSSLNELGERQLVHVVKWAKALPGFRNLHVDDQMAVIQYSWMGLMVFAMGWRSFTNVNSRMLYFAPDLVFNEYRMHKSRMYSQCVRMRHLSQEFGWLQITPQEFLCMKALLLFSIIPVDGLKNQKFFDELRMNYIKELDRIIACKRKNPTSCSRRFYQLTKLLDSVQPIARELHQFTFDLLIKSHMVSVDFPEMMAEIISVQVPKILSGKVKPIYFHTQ
# Text: The basis of this assay lies in the well-defined action of androgenic agents on the maintenance and growth of muscle tissues and sexual accessory organs in animals and man. […] J. Anat. […] I. Quantitative data” Boll.-Soc. Ital. Biol. Sper. […] II. Electron-microscopic observations” Boll.-Soc. Ital. Biol. Sper. […] Castration results in rapid involution and atrophy of the prostate and seminal vesicles. This effect can be reversed by exogenous addition of androgens. Since both the levator ani muscle and the male sex organs are the tissues most responsive to the effects of androgenic agents, this model is used to determine the androgen dependent reversal of atrophy in the levator ani muscle and the sex accessory organs in immature castrated rats. […] Control vehicle • 2.
# The gain and loss of sexual organ weight reflect the changes of the cell number (DNA content) and cell mass (protein content), depending upon the serum androgen concentration. […] Therefore, measurement of organ wet weight is sufficient to indicate the bioactivity of androgens and androgen antagonist.
# AR [2] = molecular target: T1, AR; remark: listed apart in the source
# glucocorticoid receptor = glucocorticoid receptor (Homo sapiens, UniProt P04150); settings: concentration of ≦10 μM; 10 ng/ml PMA; A549 cells
# Method: Cells are plated the day before the assay at approximately 40000 cells/well. […] Activity is measured by analysis in a luminometer as compared to control experiments treated with buffer or dexamethasome.
# [3] = tested on: wild type AR (MDA 453 cells); settings: read-out: Kd for [3H]-DHT, Scatchard analysis
# Method: For the saturation analysis, the difference between the total binding and the non-specific binding, is defined as specific binding.
# [formula] After correcting for non-specific binding, IC50 values are determined. […]
# glucocorticoid receptor, sequence (P04150 whole entry): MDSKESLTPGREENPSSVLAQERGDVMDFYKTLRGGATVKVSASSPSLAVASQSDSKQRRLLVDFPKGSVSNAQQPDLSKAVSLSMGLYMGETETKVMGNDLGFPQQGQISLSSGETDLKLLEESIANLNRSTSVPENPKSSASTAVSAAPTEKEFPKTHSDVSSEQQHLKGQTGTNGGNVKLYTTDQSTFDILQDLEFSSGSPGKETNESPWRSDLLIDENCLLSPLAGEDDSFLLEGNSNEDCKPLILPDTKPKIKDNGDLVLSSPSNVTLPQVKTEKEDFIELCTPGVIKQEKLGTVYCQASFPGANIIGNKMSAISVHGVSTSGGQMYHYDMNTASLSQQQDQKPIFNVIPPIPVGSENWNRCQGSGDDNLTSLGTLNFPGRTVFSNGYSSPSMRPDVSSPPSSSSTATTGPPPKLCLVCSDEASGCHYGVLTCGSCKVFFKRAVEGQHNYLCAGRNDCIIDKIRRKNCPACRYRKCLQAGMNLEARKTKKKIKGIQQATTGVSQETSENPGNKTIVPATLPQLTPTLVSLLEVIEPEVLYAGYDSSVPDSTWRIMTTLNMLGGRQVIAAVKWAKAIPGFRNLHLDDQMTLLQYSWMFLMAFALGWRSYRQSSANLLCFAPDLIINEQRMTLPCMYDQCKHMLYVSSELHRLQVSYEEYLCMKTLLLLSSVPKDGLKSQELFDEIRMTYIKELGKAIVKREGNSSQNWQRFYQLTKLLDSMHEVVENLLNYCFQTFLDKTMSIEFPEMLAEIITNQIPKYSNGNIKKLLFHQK
molecule,measurement,setting,value
"CCC(=O)O[C@H]1CC[C@H]2[C@@H]3CCC4=CC(=O)CC[C@]4(C)[C@H]3CC[C@]12C [TP, testosterone propionate]",potency relative to free T,AR [1]; TP versus free T,10-30 fold
same,EC50 (increase in organ weight),"AR [1]; castrated rats, dosing for 3 days",~0.03 mg
same,potency relative to free T,AR [2]; TP versus free T,10-30 fold
same,ED80,AR [2]; immature castrated rat model,0.1 mg
same,EC50 (increase in organ weight),"AR [2]; immature castrated rats, dosing for 3 days",~0.03 mg
C[C@@H]1C[C@H]2[C@@H]3CCC4=CC(=O)C=C[C@]4(C)[C@@]3(F)[C@@H](O)C[C@]2(C)[C@@]1(O)C(=O)CO [dexamethasone],suppression of activity (% inhibition of the reporter system vs buffer control with PMA),glucocorticoid receptor,65%
tritiated dihydrotestosterone [[^3H]-DHT],Kd,[3],0.7 nM
